Measurements published in US6720344B2, “Methods and compositions for stimulating osteoblast proliferation or treating malignant cell proliferation and methods for selecting osteoblast proliferation stimulants” (The Board of Regents of the University of Texas System, priority 1996, dated 2004).

How the values were obtained:
BMP-2 promoter = BMP-2 promoter luciferase assay in 2T3 cells (Example 1); assay type: cell-based, murine
Excerpt: Such activity may be determined using any one of a number of methods known to the skilled artisan, such as by using the luciferase promoter assay described in Example 1. […] Since BMP-2 luciferase promoter constructs were transfected into immortalized murine osteoblasts (2T3 cells), the stimulation of luciferase activity is reasonably correlated to a osteoblast proliferation stimulation activity as recognized by those of ordinary skill in the art.
This technique has been described in the scientific literature [Ghosh-Choudhury, N.; Windle, J; J.; Koop, B. A.; Harris, M. A.; Guerrero, D. L.; Wozney, J. M.; Mundy, G. R.; Harris, S. E.; “Immortalized Murine Osteoblasts Derived from BMP 2-T-Antigen Expressing Transgenic Mice” Endocrinology (1996) 137, 331-339]. […]
Immortalized murine osteoblasts (2T3 cells) containing a bone morphogenetic protein 2 (BMP-2) promoter fragment are isolated from the calvaria of transgenic mice and cloned. […] Employing this BMP-2 promoter assay as an additional screening technique, the ED50 of compounds that stimulate luciferase activity, and, by inference, osteoblast proliferation, can be further assessed. […]
The transfection is carried out by the calcium phosphate precipitation technique. […] Luciferase enzyme activity can be measured in 15 different clonal cell lines. […] Luciferase activity is measured using a kit from Promega and a luminometer.

Row | Compound | EC50 (BMP-2 promoter; assay conditions of Example 1, stimulation of luciferase activity, read-out: ED50 in the promoter assay) [nM] | production of luciferase action / BMP-2 promoter activity, in words (BMP-2 promoter; assay for BMP-2 promoter activity, compared to control) | melting point [°C]
1 | COc1ccc(C(=O)Nc2nc3ccccc3s2)cc1 [2-(4-methoxybenzoyamino)-1,3-benzthiazole, reference compound] | ~100 | – | –
2 | CC(C)Oc1ccc2c(c1)Cc1ccccc1C2=O [anthrone, 3-i-propoxyanthrone] | – | reduced pharmacological activity | 123 to 124
